According to PubChem BioAssay AID2060488 (Molecular Pharmacology Branch, DTP, NCI, 2025):

System: 966289-007-R4-J1-PDC complex spheroid viability
Assay: Anticancer human tumor 966289-007-R4-J1-PDC patient-derived pancreatic adenocarcinoma cell line growth inhibition [GQUAD]
Details: for IC50: curve of first compound; for viability, T/C: stronger effect = lower value
Outline: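 Viability of tumor cells grown as complex spheroids with endothelial and stromal cells, exposed to drug combinations. Top concentration at or near clinical Cmax (else 10 microM), diluted in half-log increments.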
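Further: spheroids exposed to the agents for seven days before readout.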
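Wherever viability, T/C is given: percent viability relative to DMSO vehicle control wells taken as 100%.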

## CC[C@@]1(O)C(=O)OCc2c1cc1n(c2=O)Cc2cc3c(CN(C)C)c(O)ccc3nc2-1 + Cc1cnc(CNC(=O)c2c(=O)c3ccc(N4CCCN(C)CC4)nc3n3c2sc2ccccc23)cn1
Second compound 0.0316 µM
  IC50: 14.7 nM
Second compound 0.1 µM
  IC50: < 0.999 nM
Second compound 0.316 µM
  IC50: < 0.999 nM
Second compound 1 µM
  IC50: < 0.999 nM
Second compound 3.16 µM
  IC50: < 0.999 nM
Second compound 10 µM
  IC50: < 0.999 nM
Second compound 0.0316 µM, first compound 0.000999 µM
  viability, T/C: 114%
Second compound 0.0316 µM, first compound 0.00316 µM
  viability, T/C: 101%
Second compound 0.0316 µM, first compound 0.00999 µM
  viability, T/C: 70.2%
Second compound 0.0316 µM, first compound 0.0316 µM
  viability, T/C: 11%
Second compound 0.0316 µM, first compound 0.0999 µM
  viability, T/C: 0.58%
Second compound 0.0316 µM, first compound 0.316 µM
  viability, T/C: 0.79%
Second compound 0.1 µM, first compound 0.000999 µM
  viability, T/C: 37.3%
Second compound 0.1 µM, first compound 0.00316 µM
  viability, T/C: 28.6%
Second compound 0.1 µM, first compound 0.00999 µM
  viability, T/C: 16.8%
Second compound 0.1 µM, first compound 0.0316 µM
  viability, T/C: 3.15%
Second compound 0.1 µM, first compound 0.0999 µM
  viability, T/C: 0.77%
Second compound 0.1 µM, first compound 0.316 µM
  viability, T/C: 0.75%
Second compound 0.316 µM, first compound 0.000999 µM
  viability, T/C: 9.34%
Second compound 0.316 µM, first compound 0.00316 µM
  viability, T/C: 13.5%
Second compound 0.316 µM, first compound 0.00999 µM
  viability, T/C: 8.56%
Second compound 0.316 µM, first compound 0.0316 µM
  viability, T/C: 2.61%
Second compound 0.316 µM, first compound 0.0999 µM
  viability, T/C: 0.93%
Second compound 0.316 µM, first compound 0.316 µM
  viability, T/C: 0.49%
Second compound 1 µM, first compound 0.000999 µM
  viability, T/C: 5.94%
Second compound 1 µM, first compound 0.00316 µM
  viability, T/C: 5.56%
Second compound 1 µM, first compound 0.00999 µM
  viability, T/C: 4.48%
Second compound 1 µM, first compound 0.0316 µM
  viability, T/C: 1.71%
Second compound 1 µM, first compound 0.0999 µM
  viability, T/C: 0.92%
Second compound 1 µM, first compound 0.316 µM
  viability, T/C: 0.68%
Second compound 3.16 µM, first compound 0.000999 µM
  viability, T/C: 3.9%
Second compound 3.16 µM, first compound 0.00316 µM
  viability, T/C: 3.89%
Second compound 3.16 µM, first compound 0.00999 µM
  viability, T/C: 3.05%
Second compound 3.16 µM, first compound 0.0316 µM
  viability, T/C: 0.13%
Second compound 3.16 µM, first compound 0.0999 µM
  viability, T/C: 0.08%
Second compound 3.16 µM, first compound 0.316 µM
  viability, T/C: 0.07%
Second compound 10 µM, first compound 0.000999 µM
  viability, T/C: 0.03%
Second compound 10 µM, first compound 0.00316 µM
  viability, T/C: 0.08%
Second compound 10 µM, first compound 0.00999 µM
  viability, T/C: 0.12%
Second compound 10 µM, first compound 0.0316 µM
  viability, T/C: 0.09%
Second compound 10 µM, first compound 0.0999 µM
  viability, T/C: 0.3%
Second compound 10 µM, first compound 0.316 µM
  viability, T/C: 0.11%
